Assays:
HBV = assay: Anti-HBV activity in HepG2.2.15 cells (HBV DNA in culture medium by qPCR); type: cell-based; conditions: Hepatitis B virus, HepG2.2.15, 144 h, HepG2.2.15 cells, 6 days treatment, HBV DNA in culture medium quantified by real-time PCR; read-out: EC50
How it was run: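 Secreted HBV DNA was measured by real-time PCR after 6-day compound exposure of HepG2.2.15 cells (2% FBS, 37 °C, re-dosed after 3 days), giving EC50 from 8-point 1:3 series starting at 10 or 1 uM. Cytotoxicity (CC50) run separately at lower cell density, top 100 uM.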

[1] = Cytotoxicity determination in HepG2.2.15 cells (CCK-8 cell viability); type: cell-based; conditions: human, 6 days treatment, CCK-8 assay, highest concentration 100 uM
How it was run: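 Viability measured by CCK-8 absorbance (450 nm, 630 nm reference, 2.5 h at 37° C) after six days of treatment, medium and compound renewed on day 3. Top concentration 100 uM, eight threefold dilutions in triplicate; cells plated at 5,000/well in 2% FBS medium; CC50 derived.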

Row | SMILES | EC50 (HBV) [nM] | CC50 at 6 days [1] [nM]
1 | CCOC(=O)C1=C(CN2CC(F)(F)[C@H]3[C@@H]2CCN3CC(C)(C)C(=O)O)NC(c2nccs2)=N[C@H]1c1cccc(F)c1C (relative stereo) [Compound 1A, 3-(4-(((S)-5-(ethoxycarbonyl)-6-(3-fluoro-2-methylphenyl)-2-(thiazol-2-yl)-3,6-dihydropyrimidin-4-yl)methyl)-6,6-difluorohexahydropyrrolo[3,2-b]pyrrol-1(2H)-yl)-2,2-dimethylpropanoic acid] | 1.3 | 15000
2 | CCOC(=O)C1=C(CN2CC(F)(F)[C@H]3[C@@H]2CCN3CCC(C)(C)C(=O)O)NC(c2nccs2)=N[C@@H]1c1ccc(F)nc1C (relative stereo) [Compound 121, 4-((cis)-4-(((R)-5-(ethoxycarbonyl)-6-(6-fluoro-2-methylpyridin-3-yl)-2-(thiazol-2-yl)-3,6-dihydropyrimidin-4-yl)methyl)-6,6-difluorohexahydropyrrolo[3,2-b]pyrrol-1(2H)-yl)-2,2-dimethylbutanoic acid] | 8.7 | > 100000
3 | CCOC(=O)C1=C(CN2CC(F)(F)[C@H]3[C@@H]2CCN3CCC(C)C(=O)O)NC(c2nccs2)=N[C@H]1c1cccc(F)c1C (single isomer, unassigned) [Compound 147] | < 0.5 | 34600
4 | CCOC(=O)C1=C(CN2CC(F)(F)[C@@H]3[C@H]2CN(C=O)N3CCC(C)(C)C(=O)O)NC(c2nccs2)=N[C@H]1c1cccc(F)c1C (single isomer, unassigned) [Compound 86] | 130 | > 50000
5 | CCOC(=O)C1=C(CN2CC(F)(F)[C@@H]3CNC[C@@H]32)NC(c2nccs2)=N[C@H]1c1cccc(F)c1C (single isomer, unassigned) [Compound 179] | 50 | > 3100
6 | CCOC(=O)C1=C(CN2CC(F)(F)[C@H]3[C@@H]2CCN3C[C@H]2C[C@@](C)(C(=O)O)C2)NC(c2nccs2)=N[C@H]1c1cccc(F)c1C (single isomer, unassigned) [Compound 116A] | 0.8 | 12100
7 | CCOC(=O)C1=C(CN2CC(F)(F)[C@@H]3[C@H]2CN(C(=O)C2CC2)N3CCC(C)(C)C(=O)O)NC(c2nccs2)=N[C@H]1c1cccc(F)c1C (single isomer, unassigned) [Compound 73] | 17 | 26000
8 | CCOC(=O)C1=C(CN2CC(F)(F)[C@@H]3[C@H]2CN(C)N3CC(C)(C)C(=O)O)NC(c2nccs2)=N[C@@H]1c1ccc(F)nc1C (single isomer, unassigned) [Compound 97] | 77 | > 100000
9 | CCOC(=O)C1=C(CN2CC(F)(F)[C@H]3[C@@H]2CCN3CC(=O)NS(C)(=O)=O)NC(c2nccs2)=N[C@H]1c1cccc(F)c1C (single isomer, unassigned) [Compound 8A] | 6.9 | 36300
10 | [2H]C1([2H])C[C@H]2[C@@H](N1CCC(C)(C)C(=O)O)C(F)(F)CN2CC1=C(C(=O)OCC)[C@H](c2cccc(F)c2C)N=C(c2nccs2)N1 (single isomer, unassigned) [Compound 157] | 0.8 | 24800
11 | CCOC(=O)C1=C(CN2CC(F)(F)[C@H]3[C@@H]2CCN3[C@@H](C)CC(C)(C)C(=O)O)NC(c2nccs2)=N[C@H]1c1cccc(F)c1C (single isomer, unassigned) [Compound 105B] | 108 | 94300
12 | CCOC(=O)C1=C(CN2CC(F)(F)[C@H]3CN([C@H]4C[C@@H](C(=O)O)C4)C[C@H]32)NC(c2nccs2)=N[C@H]1c1cccc(F)c1C (single isomer, unassigned) [Compound 18B] | 73.7 | 64200
13 | CCOC(=O)C1=C(CN2CC(F)(F)[C@@H]3CN(CCC(C)(C)C(=O)O)C[C@@H]32)NC(c2nccs2)=N[C@H]1c1cccc(F)c1C (single isomer, unassigned) [Compound 17B] | 123 | 72800
14 | CCOC(=O)C1=C(CN2CC(F)(F)[C@@H]3[C@H]2CN(C(=O)[C@H]2CC2(F)F)N3CCC(C)(C)C(=O)O)NC(c2nccs2)=N[C@H]1c1cccc(F)c1C (single isomer, unassigned) [Compound 72A] | 55 | 14500
15 | CCOC(=O)C1=C(CN2CC(F)(F)[C@H]3CN(C[C@@H](C)C(=O)O)C[C@H]32)NC(c2nccs2)=N[C@H]1c1cccc(F)c1C (single isomer, unassigned) [Compound 15E] | 22.5 | 41700
16 | CCOC(=O)C1=C(CN2CC(F)(F)[C@H]3[C@@H]2CCN3CC[C@H]2C[C@@H]2C(=O)O)NC(c2nccs2)=N[C@H]1c1cccc(F)c1C (relative stereo) [Compound 110, (trans)-2-(2-((cis)-4-(((S)-5-(ethoxycarbonyl)-6-(3-fluoro-2-methylphenyl)-2-(thiazol-2-yl)-3,6-dihydropyrimidin-4-yl)methyl)-6,6-difluorohexahydropyrrolo[3,2-b]pyrrol-1(2H)-yl)ethyl)cyclopropane-1-carboxylic acid] | 0.6 | 23500
17 | CCOC(=O)C1=C(CN2CC(F)(F)[C@H]3[C@@H]2CCN3[C@H]2CC[C@@H](C(=O)O)CC2)NC(c2nccs2)=N[C@H]1c1cccc(F)c1C (single isomer, unassigned) [Compound 104A] | 10.4 | 16100
18 | COC(=O)C1=C(CN2CC(F)(F)[C@@H]3[C@H]2CON3CCC(C)(C)C(=O)O)NC(c2nccs2)=N[C@H]1c1ccc(F)c(F)c1C (single isomer, unassigned) [Compound 161, (cis)-4-(4-((6-(3,4-difluoro-2-methylphenyl)-5-(methoxycarbonyl)-2-(thiazol-2-yl)-3,6-dihydropyrimidin-4-yl)methyl)-6,6-difluorohexahydro-1H-pyrrolo[3,2-c]isoxazol-1-yl)-2,2-dimethylbutanoic acid] | 8 | > 50000
19 | CCOC(=O)C1=C(CN2CC[C@H]3C(=O)N(CC(C)(C)C(=O)O)C(=O)[C@H]32)NC(c2nccs2)=N[C@H]1c1cccc(F)c1C (relative stereo) [Compound 4A, 3-(1-(((S)-5-(ethoxycarbonyl)-6-(3-fluoro-2-methylphenyl)-2-(thiazol-2-yl)-3,6-dihydropyrimidin-4-yl)methyl)-4,6-dioxohexahydropyrrolo[3,4-b]pyrrol-5(1H)-yl)-2,2-dimethylpropanoic acid] | 6.3 | 32600
20 | CCOC(=O)C1=C(CN2CC(F)(F)[C@H]3[C@@H]2CCN3CC(=O)O)NC(c2nccs2)=N[C@H]1c1cccc(F)c1C (single isomer, unassigned) [Compound 6B] | 382 | 34700
21 | COC(=O)C1=C(CN2CC(F)(F)[C@H]3[C@@H]2CCN3C[C@@H](C)C(=O)O)NC(c2nccs2)=N[C@H]1c1ccc(F)c(F)c1Cl (single isomer, unassigned) [Compound 134A, 3-((cis)-4-((6-(2-chloro-3,4-difluorophenyl)-5-(methoxycarbonyl)-2-(thiazol-2-yl)-3,6-dihydropyrimidin-4-yl)methyl)-6,6-difluorohexahydropyrrolo[3,2-b]pyrrol-1(2H)-yl)-2-methylpropanoic acid] | < 0.5 | 26900
22 | CCOC(=O)C1=C(CN2CC(F)(F)[C@H]3[C@@H]2CCN3C[C@@H](C)C(=O)O)NC(c2nccs2)=N[C@H]1c1cccc(F)c1Cl (single isomer, unassigned) [Compound 149A] | < 0.5 | 21800
23 | CCOC(=O)C1=C(CN2CC(F)(F)[C@H]3[C@@H]2CCN3CCC(C)(C)C(=O)O)NC(c2nc(C)cs2)=N[C@H]1c1cccc(F)c1C (single isomer, unassigned) [Compound 118] | 5.4 | 12700
24 | CCOC(=O)C1=C(CN2CC(F)(F)[C@@H]3CN(CC4(CC(=O)O)CC4)C[C@@H]32)NC(c2nccs2)=N[C@H]1c1cccc(F)c1C (single isomer, unassigned) [Compound 48] | 105 | > 100000
25 | CCOC(=O)C1=C(CN2C[C@H](F)[C@]3(F)C(=O)N(CC(C)(C)C(=O)O)C[C@H]23)NC(c2nccs2)=N[C@H]1c1cccc(F)c1C (single isomer, unassigned) [Compound 204B] | 102 | 72100
26 | CCOC(=O)C1=C(CN2CC(F)(F)[C@H]3[C@@H]2CCN3C(=O)NC(N)=O)NC(c2nccs2)=N[C@H]1c1cccc(F)c1C (single isomer, unassigned) [Compound 63] | 11.8 | 25200
27 | CCOC(=O)C1=C(CN2CC(F)(F)[C@H]3[C@@H]2CCN3CC[C@H]2C[C@@H](C(=O)O)C2)NC(c2nccs2)=N[C@H]1c1cccc(F)c1C (single isomer, unassigned) [Compound 129A] | 7.7 | 10300
28 | CCOC(=O)C1=C(CN2CC(F)(F)[C@@H]3[C@H]2CN(C(C)C)N3CCC(C)(C)C(=O)O)NC(c2nccs2)=N[C@H]1c1cccc(F)c1C (single isomer, unassigned) [Compound 89] | 60 | > 3120
29 | CCOC(=O)C1=C(CN2CC(F)(F)[C@H]3[C@@H]2CCN3CCC(C)(C)C(=O)O)NC(c2nccs2)=N[C@@H]1c1ccc(F)c(F)c1F (single isomer, unassigned) [Compound 140, (cis)-4-(4-((5-(ethoxycarbonyl)-2-(thiazol-2-yl)-6-(2,3,4-trifluorophenyl)-3,6-dihydropyrimidin-4-yl)methyl)-6,6-difluorohexahydropyrrolo[3,2-b]pyrrol-1(2H)-yl)-2,2-dimethylbutanoic acid] | 7 | 36700
